According to the supplement of paper PMC13207355:

How the values were obtained:
Details in all cases: exposure time: 72 h
E34 [1] = patient-derived glioblastoma stem cells of proneural subtype; assay: surviving fraction (nuclei count normalised to DMSO); higher = more cells surviving (less toxic)
E31 [2] = patient-derived glioblastoma stem cells of proneural subtype; assay: as above
FT3469 [3] = normal neural stem cell line; assay: as above
E28 [4] = patient-derived glioblastoma stem cells of classical subtype; assay: as above
E13 [5] = patient-derived glioblastoma stem cells of classical subtype; assay: as above
E21 [6] = patient-derived glioblastoma stem cells of mesenchymal subtype; assay: as above
E57 [7] = patient-derived glioblastoma stem cells of mesenchymal subtype; assay: as above
E34 [8] = assay: phenotypic distance (Euclidean, principal components) from DMSO controls (arbitrary units); higher = stronger morphological change
E31 [9] = assay: as above
FT3469 [10] = assay: as above
E28 [11] = assay: as above
E13 [12] = assay: as above
E21 [13] = assay: as above
E57 [14] = assay: as above
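Throughout, for phenotypic distance (Euclidean, principal components) from DMSO controls: cell Painting imaging in 384-well plates, CellProfiler features reduced to at least 20 principal components, Euclidean distance versus same-plate DMSO vehicle wells (0.1% v/v), median over six images per well.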
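Throughout, for surviving fraction (nuclei count normalised to DMSO): nuclei counted by high-content imaging of Hoechst-stained cells in laminin-coated 384-well plates, relative to 0.1% DMSO vehicle wells, with staurosporine as cell-death control.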

C/C(=C\c1csc(C)n1)[C@@H]1C[C@@H]2O[C@]2(C)CCC[C@H](C)[C@H](O)[C@@H](C)C(=O)C(C)(C)[C@@H](O)CC(=O)N1 [Ixabepilone]
surviving fraction (E34 [1]; 4.1 nM): 0.609 | surviving fraction (E34 [1]; 12.3 nM): 0.672 | surviving fraction (E34 [1]; 37 nM): 0.582 | surviving fraction (E34 [1]; 111.1 nM): 0.531 | surviving fraction (E34 [1]; 333.3 nM): 0.465 | surviving fraction (E34 [1]; 1000 nM): 0.421 | surviving fraction (E34 [1]; 3000 nM): 0.331 | surviving fraction (E31 [2]; 4.1 nM): 0.269 | surviving fraction (E31 [2]; 12.3 nM): 0.261 | surviving fraction (E31 [2]; 37 nM): 0.172 | surviving fraction (E31 [2]; 111.1 nM): 0.149 | surviving fraction (E31 [2]; 333.3 nM): 0.137 | surviving fraction (E31 [2]; 1000 nM): 0.208 | surviving fraction (E31 [2]; 3000 nM): 0.157 | surviving fraction (FT3469 [3]; 4.1 nM): 0.574 | surviving fraction (FT3469 [3]; 12.3 nM): 0.624 | surviving fraction (FT3469 [3]; 37 nM): 0.63 | surviving fraction (FT3469 [3]; 111.1 nM): 0.677 | surviving fraction (FT3469 [3]; 333.3 nM): 0.521 | surviving fraction (FT3469 [3]; 1000 nM): 0.716 | surviving fraction (FT3469 [3]; 3000 nM): 0.548 | surviving fraction (E28 [4]; 4.1 nM): 0.611 | surviving fraction (E28 [4]; 12.3 nM): 0.6 | surviving fraction (E28 [4]; 37 nM): 0.431 | surviving fraction (E28 [4]; 111.1 nM): 0.464 | surviving fraction (E28 [4]; 333.3 nM): 0.345 | surviving fraction (E28 [4]; 1000 nM): 0.404 | surviving fraction (E28 [4]; 3000 nM): 0.237 | surviving fraction (E13 [5]; 4.1 nM): 0.341 | surviving fraction (E13 [5]; 12.3 nM): 0.286 | surviving fraction (E13 [5]; 37 nM): 0.271 | surviving fraction (E13 [5]; 111.1 nM): 0.193 | surviving fraction (E13 [5]; 333.3 nM): 0.21 | surviving fraction (E13 [5]; 1000 nM): 0.193 | surviving fraction (E13 [5]; 3000 nM): 0.175 | surviving fraction (E21 [6]; 4.1 nM): 0.229 | surviving fraction (E21 [6]; 12.3 nM): 0.256 | surviving fraction (E21 [6]; 37 nM): 0.211 | surviving fraction (E21 [6]; 111.1 nM): 0.245 | surviving fraction (E21 [6]; 333.3 nM): 0.286 | surviving fraction (E21 [6]; 1000 nM): 0.259 | surviving fraction (E21 [6]; 3000 nM): 0.243 | surviving fraction (E57 [7]; 4.1 nM): 0.172 | surviving fraction (E57 [7]; 12.3 nM): 0.152 | surviving fraction (E57 [7]; 37 nM): 0.128 | surviving fraction (E57 [7]; 111.1 nM): 0.0952 | surviving fraction (E57 [7]; 333.3 nM): 0.0774 | surviving fraction (E57 [7]; 1000 nM): 0.0873 | surviving fraction (E57 [7]; 3000 nM): 0.0627 | phenotypic distance (E34 [8]; 4.1 nM): 2.35 | phenotypic distance (E34 [8]; 12.3 nM): 2.42 | phenotypic distance (E34 [8]; 37 nM): 2.65 | phenotypic distance (E34 [8]; 111.1 nM): 3.43 | phenotypic distance (E34 [8]; 333.3 nM): 3.13 | phenotypic distance (E34 [8]; 1000 nM): 3.44 | phenotypic distance (E34 [8]; 3000 nM): 4.33 | phenotypic distance (E31 [9]; 4.1 nM): 2.61 | phenotypic distance (E31 [9]; 12.3 nM): 3.43 | phenotypic distance (E31 [9]; 37 nM): 3.83 | phenotypic distance (E31 [9]; 111.1 nM): 4.57 | phenotypic distance (E31 [9]; 333.3 nM): 4.48 | phenotypic distance (E31 [9]; 1000 nM): 4.78 | phenotypic distance (E31 [9]; 3000 nM): 4.08 | phenotypic distance (FT3469 [10]; 4.1 nM): 2.99 | phenotypic distance (FT3469 [10]; 12.3 nM): 3.28 | phenotypic distance (FT3469 [10]; 37 nM): 4.81 | phenotypic distance (FT3469 [10]; 111.1 nM): 3.58 | phenotypic distance (FT3469 [10]; 333.3 nM): 3.51 | phenotypic distance (FT3469 [10]; 1000 nM): 4.06 | phenotypic distance (FT3469 [10]; 3000 nM): 4.05 | phenotypic distance (E28 [11]; 4.1 nM): 2.8 | phenotypic distance (E28 [11]; 12.3 nM): 2.1 | phenotypic distance (E28 [11]; 37 nM): 3.6 | phenotypic distance (E28 [11]; 111.1 nM): 4.12 | phenotypic distance (E28 [11]; 333.3 nM): 4.09 | phenotypic distance (E28 [11]; 1000 nM): 3.46 | phenotypic distance (E28 [11]; 3000 nM): 4.61 | phenotypic distance (E13 [12]; 4.1 nM): 4.32 | phenotypic distance (E13 [12]; 12.3 nM): 5.35 | phenotypic distance (E13 [12]; 37 nM): 4.56 | phenotypic distance (E13 [12]; 111.1 nM): 5.86 | phenotypic distance (E13 [12]; 333.3 nM): 5.9 | phenotypic distance (E13 [12]; 1000 nM): 6.44 | phenotypic distance (E13 [12]; 3000 nM): 6.86 | phenotypic distance (E21 [13]; 4.1 nM): 6.26 | phenotypic distance (E21 [13]; 12.3 nM): 5.66 | phenotypic distance (E21 [13]; 37 nM): 6.8 | phenotypic distance (E21 [13]; 111.1 nM): 5.59 | phenotypic distance (E21 [13]; 333.3 nM): 6.55 | phenotypic distance (E21 [13]; 1000 nM): 6.74 | phenotypic distance (E21 [13]; 3000 nM): 6.15 | phenotypic distance (E57 [14]; 4.1 nM): 6.02 | phenotypic distance (E57 [14]; 12.3 nM): 5.51 | phenotypic distance (E57 [14]; 37 nM): 5.64 | phenotypic distance (E57 [14]; 111.1 nM): 5.48 | phenotypic distance (E57 [14]; 333.3 nM): 7.37 | phenotypic distance (E57 [14]; 1000 nM): 6.58 | phenotypic distance (E57 [14]; 3000 nM): 6.89
